Test results reported in patent publication US8987195B2 (priority 2012, dated 2015).

How the values were obtained:
[1] = biological target: HCV NS3/4A protease genotype 1b (Hepatitis C virus genotype 1b, UniProt P26663); experiment: HCV NS3/4A protease time-resolved fluorescence (TRF) assay, Ki against genotype 1b; assay type: biochemical; details: IC50 [gt-1b] (nM), NS3/4A genotype 1b, enzyme 0.2 nM
How it was run: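 Enzyme 0.2 nM 1b / 0.4 nM A156T / 0.025 nM 3a; 30 min preinc. w/ cpd; 25 nM TRF peptide; 2.5 h RT; ex 340/em 615 time-delayed; 4-param IC50 → Ki = IC50/(1+[S]/KM).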

HCV genotype 1b replicon = experiment: HCV replicon assay, genotype 1b replicon EC50; assay type: cell-based, Hepatitis C virus; details: Hepatitis C virus, genotype 1b replicon; read-out: EC50 [gt-1b]
How it was run: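 Replicon cells (Neo^r, some luciferase:Neo^r fusion); G418 removed at plating; compound dilution series, 24-48 h. Readout: RNA by 32P-probe hybridization/protection or TaqMan, normalized to cyclophilin A RNA, or luciferase. EC50 vs DMSO control, 4-parameter fit.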

| SMILES | IC50 [1] | EC50 (HCV genotype 1b replicon) |
| --- | --- | --- |
| Cc1ccc2nc(C)c3c(c2c1)CC[C@]1(C[C@H]2C(=O)N[C@]4(C(=O)NS(=O)(=O)C5CC5)C[C@H]4/C=C\CCCCC[C@H](NC(=O)OC(C)(C)C)C(=O)N2C1)O3 [Example 87, tert-butyl {(2R,6S,12Z,13aS,14aR,16aS)-14a-[(cyclopropylsulfonyl)carbamoyl]-5′,9′-dimethyl-5,16-dioxo-1,1′,2′,5,6,7,8,9,10,11,13a,14,14a,15,16,16a-hexadecahydrospiro[cyclopropa[e]pyrrolo[1,2-a][1,4]diazacyclopentadecine-2,3′-pyrano[2,3-c]quinolin]-6-yl}carbamate] | 0.01 nM | 5.87 nM |
| COC(=O)N[C@H]1CCCCC/C=C\[C@@H]2C[C@@]2(C(=O)NS(=O)(=O)C2(C)CC2)NC(=O)[C@@H]2C[C@]3(CCc4c(c(-c5cccc(F)c5)nc5ccccc45)O3)CN2C1=O [Example 88, methyl [(2R,6S,12Z,13aS,14aR,16aS)-5′-(3-fluorophenyl)-14a-{[(1-methylcyclopropyl)sulfonyl]carbamoyl}-5,16-dioxo-1,1′,2′,5,6,7,8,9,10,11,13a,14,14a,15,16,16a-hexadecahydrospiro[cyclopropa[e]pyrrolo[1,2-a][1,4]diazacyclopentadecine-2,3′-pyrano[2,3-c]quinolin]-6-yl]carbamate] | 0.202 nM | 0.582 nM |
| COc1ccc2nc(C3CC3)c3c(c2c1)CC[C@]1(C[C@H]2C(=O)N[C@]4(C(=O)NS(=O)(=O)C5(C)CC5)C[C@H]4/C=C\CCCCC[C@H](NC(=O)NC(C)(C)C)C(=O)N2C1)O3 [Example 90, (2R,6S,12Z,13aS,14aR,16aS)-6-[(tert-butylcarbamoyl)amino]-5′-cyclopropyl-9′-methoxy-N-[(1-methylcyclopropyl)sulfonyl]-5,16-dioxo-1,1′,2′,6,7,8,9,10,11,13a,14,15,16,16a-tetradecahydrospiro[cyclopropa[e]pyrrolo[1,2-a][1,4]diazacyclopentadecine-2,3′-pyrano[2,3-c]quinoline]-14a(5H)-carboxamide] | 0.006 nM | 1.15 nM |
| COc1ccc2nc(C3CC3)c3c(c2c1)CC[C@]1(C[C@H]2C(=O)N[C@]4(C(=O)NS(=O)(=O)C5(C)CC5)C[C@H]4/C=C\CCCCC[C@H](NC(=O)OC4CCCC4)C(=O)N2C1)O3 [Example 91, cyclopentyl [(2R,6S,12Z,13aS,14aR,16aS)-5′-cyclopropyl-9′-methoxy-14a-{[(1-methylcyclopropyl)sulfonyl]carbamoyl}-5,16-dioxo-1,1′,2′,5,6,7,8,9,10,11,13a,14,14a,15,16,16a-hexadecahydrospiro[cyclopropa[e]pyrrolo[1,2-a][1,4]diazacyclopentadecine-2,3′-pyrano[2,3-c]quinolin]-6-yl]carbamate] | 0.009 nM | 0.46 nM |
| COc1ccc2nc(C3CC3)c3c(c2c1)CC[C@]1(C[C@H]2C(=O)N[C@]4(C(=O)NS(=O)(=O)C5(C)CC5)C[C@H]4/C=C\CCCCC[C@H](NC(=O)OC4(C)CC4)C(=O)N2C1)O3 [Example 92, 1-methylcyclopropyl [(2R,6S,12Z,13aS,14aR,16aS)-5′-cyclopropyl-9′-methoxy-14a-{[(1-methylcyclopropyl)sulfonyl]carbamoyl}-5,16-dioxo-1,1′,2′,5,6,7,8,9,10,11,13a,14,14a,15,16,16a-hexadecahydrospiro[cyclopropa[e]pyrrolo[1,2-a][1,4]diazacyclopentadecine-2,3′-pyrano[2,3-c]quinolin]-6-yl]carbamate] | 0.01 nM | 0.44 nM |
| COc1ccc2nc(C3CC3)c3c(c2c1)CC[C@]1(C[C@H]2C(=O)N[C@]4(C(=O)NS(=O)(=O)C5(C)CC5)C[C@H]4/C=C\CCCCC[C@H](NC(=O)NC4CCCC4)C(=O)N2C1)O3 [Example 93, (2R,6S,12Z,13aS,14aR,16aS)-6-[(cyclopentylcarbamoyl)amino]-5′-cyclopropyl-9′-methoxy-N-[(1-methylcyclopropyl)sulfonyl]-5,16-dioxo-1,1′,2′,6,7,8,9,10,11,13a,14,15,16,16a-tetradecahydrospiro[cyclopropa[e]pyrrolo[1,2-a][1,4]diazacyclopentadecine-2,3′-pyrano[2,3-c]quinoline]-14a(5H)-carboxamide] | 0.007 nM | 3.4 nM |
| COc1ccc2nc(C3CC3)c3c(c2c1)CC[C@]1(C[C@H]2C(=O)N[C@]4(C(=O)NS(=O)(=O)C5(C)CC5)C[C@H]4/C=C\CCCCC[C@H](NC(=O)OC(C)C)C(=O)N2C1)O3 [Example 94, propan-2-yl [(2R,6S,12Z,13aS,14aR,16aS)-5′-cyclopropyl-9′-methoxy-14a-{[(1-methylcyclopropyl)sulfonyl]carbamoyl}-5,16-dioxo-1,1′,2′,5,6,7,8,9,10,11,13a,14,14a,15,16,16a-hexadecahydrospiro[cyclopropa[e]pyrrolo[1,2-a][1,4]diazacyclopentadecine-2,3′-pyrano[2,3-c]quinolin]-6-yl]carbamate] | 0.003 nM | 0.61 nM |
| Cc1nc2c(C(F)(F)F)cccc2c2c1O[C@]1(CC2)C[C@H]2C(=O)N[C@]3(C(=O)NS(=O)(=O)C4CC4)C[C@H]3/C=C\CCCCC[C@H](NC(=O)OC(C)(C)C)C(=O)N2C1 [Example 95, tert-butyl [(2R,6S,12Z,13aS,14aR,16aS)-14a-[(cyclopropylsulfonyl)carbamoyl]-5′-methyl-5,16-dioxo-7′-(trifluoromethyl)-1,1′,2′,5,6,7,8,9,10,11,13a,14,14a,15,16,16a-hexadecahydrospiro[cyclopropa[e]pyrrolo[1,2-a][1,4]diazacyclopentadecine-2,3′-pyrano[2,3-c]quinolin]-6-yl]carbamate] | 0.993 nM | 5.24 nM |
| Cc1nc2ccccc2c2c1O[C@]1(CC2)C[C@H]2C(=O)N[C@]3(C(=O)NS(=O)(=O)C4(C)CC4)C[C@H]3/C=C\CCCCC[C@H](NC(=O)OC3CCCC3)C(=O)N2C1 [Example 96, cyclopentyl [(2R,6S,12Z,13aS,14aR,16aS)-5′-methyl-14a-{[(1-methylcyclopropyl)sulfonyl]carbamoyl}-5,16-dioxo-1,1′,2′,5,6,7,8,9,10,11,13a,14,14a,15,16,16a-hexadecahydrospiro[cyclopropa[e]pyrrolo[1,2-a][1,4]diazacyclopentadecine-2,3′-pyrano[2,3-c]quinolin]-6-yl]carbamate] | 0.01 nM | 0.796 nM |
| Cc1nc2ccccc2c2c1O[C@]1(CC2)C[C@H]2C(=O)N[C@]3(C(=O)NS(=O)(=O)C4(C)CC4)C[C@H]3/C=C\CCCCC[C@H](NC(=O)OCC(C)C)C(=O)N2C1 [Example 97, 2-methylpropyl [(2R,6S,12Z,13aS,14aR,16aS)-5′-methyl-14a-{[(1-methylcyclopropyl)sulfonyl]carbamoyl}-5,16-dioxo-1,1′,2′,5,6,7,8,9,10,11,13a,14,14a,15,16,16a-hexadecahydrospiro[cyclopropa[e]pyrrolo[1,2-a][1,4]diazacyclopentadecine-2,3′-pyrano[2,3-c]quinolin]-6-yl]carbamate] | 0.016 nM | 1.94 nM |
| CC(C)(C)OC(=O)N[C@H]1CCCCC/C=C\[C@@H]2C[C@@]2(C(=O)NS(=O)(=O)C2CC2)NC(=O)[C@@H]2C[C@]3(CCc4c(cnc5ccccc45)O3)CN2C1=O [Example 98, tert-butyl {(2R,6S,12Z,13aS,14aR,16aS)-14a-[(cyclopropylsulfonyl)carbamoyl]-5,16-dioxo-1,1′,2′,5,6,7,8,9,10,11,13a,14,14a,15,16,16a-hexadecahydrospiro[cyclopropa[e]pyrrolo[1,2-a][1,4]diazacyclopentadecine-2,3′-pyrano[2,3-c]quinolin]-6-yl}carbamate] | 0.057 nM | 9.72 nM |
| CC(C)(C)OC(=O)N[C@H]1CCCCC/C=C\[C@@H]2C[C@@]2(C(=O)NS(=O)(=O)C2(C)CC2)NC(=O)[C@@H]2C[C@]3(CCc4c(cnc5ccccc45)O3)CN2C1=O [Example 99, tert-butyl [(2R,6S,12Z,13aS,14aR,16aS)-14a-{[(1-methylcyclopropyl)sulfonyl]carbamoyl}-5,16-dioxo-1,1′,2′,5,6,7,8,9,10,11,13a,14,14a,15,16,16a-hexadecahydrospiro[cyclopropa[e]pyrrolo[1,2-a][1,4]diazacyclopentadecine-2,3′-pyrano[2,3-c]quinolin]-6-yl]carbamate] | 0.033 nM | 4.53 nM |
| COc1ccc2nc(C3CC3)c3c(c2c1)CC[C@]1(C[C@H]2C(=O)N[C@]4(C(=O)NS(=O)(=O)C5(C)CC5)C[C@H]4/C=C\CCCCC[C@H](NC(=O)OCC(C)C)C(=O)N2C1)O3 [Example 100, 2-methylpropyl [(2R,6S,12Z,13aS,14aR,16aS)-5′-cyclopropyl-9′-methoxy-14a-{[(1-methylcyclopropyl)sulfonyl]carbamoyl}-5,16-dioxo-1,1′,2′,5,6,7,8,9,10,11,13a,14,14a,15,16,16a-hexadecahydrospiro[cyclopropa[e]pyrrolo[1,2-a][1,4]diazacyclopentadecine-2,3′-pyrano[2,3-c]quinolin]-6-yl]carbamate] | 0.011 nM | 2.08 nM |
| CC(C)(C)OC(=O)N[C@H]1CCCCC/C=C\[C@@H]2C[C@@]2(C(=O)O)NC(=O)[C@@H]2C[C@]3(CCc4c(cnc5ccccc45)O3)CN2C1=O [Example 101, (2R,6S,12Z,13aS,14aR,16aS)-6-[(tert-butoxycarbonyl)amino]-5,16-dioxo-1,1′,2′,6,7,8,9,10,11,13a,14,15,16,16a-tetradecahydrospiro[cyclopropa[e]pyrrolo[1,2-a][1,4]diazacyclopentadecine-2,3′-pyrano[2,3-c]quinoline]-14a(5H)-carboxylic acid] | 38.2 nM | > 100 nM |
